Experimental data taken from ChEMBL document CHEMBL6177983, “PSMA-Guided PROTAC Degraders for Tumor-Specific Protein Degradation in Prostate Cancer” (J Med Chem, 2025).
Activity calls are given as the source filed them. The rule behind the calls is not given here.

Columns and labels:
[1] = Stability of the compound in PBS buffer measured up to 24 hrs by HPLC analysis; type: physicochemical; details: read-out: Stability
[2] = biological target: T1, von Hippel-Lindau disease tumor suppressor/Androgen receptor (Homo sapiens, UniProt P10275+P40337); assay: PROTAC activity at AR/VHL in human LNCaP cells assessed as induction of androgen receptor degradation at 0.03 to 3 uM measured for 12 hrs by Western blot analysis; type: cell-based; details: dose 0.03-3 µM
Target sequence in this assay (P10275 whole entry, looked up): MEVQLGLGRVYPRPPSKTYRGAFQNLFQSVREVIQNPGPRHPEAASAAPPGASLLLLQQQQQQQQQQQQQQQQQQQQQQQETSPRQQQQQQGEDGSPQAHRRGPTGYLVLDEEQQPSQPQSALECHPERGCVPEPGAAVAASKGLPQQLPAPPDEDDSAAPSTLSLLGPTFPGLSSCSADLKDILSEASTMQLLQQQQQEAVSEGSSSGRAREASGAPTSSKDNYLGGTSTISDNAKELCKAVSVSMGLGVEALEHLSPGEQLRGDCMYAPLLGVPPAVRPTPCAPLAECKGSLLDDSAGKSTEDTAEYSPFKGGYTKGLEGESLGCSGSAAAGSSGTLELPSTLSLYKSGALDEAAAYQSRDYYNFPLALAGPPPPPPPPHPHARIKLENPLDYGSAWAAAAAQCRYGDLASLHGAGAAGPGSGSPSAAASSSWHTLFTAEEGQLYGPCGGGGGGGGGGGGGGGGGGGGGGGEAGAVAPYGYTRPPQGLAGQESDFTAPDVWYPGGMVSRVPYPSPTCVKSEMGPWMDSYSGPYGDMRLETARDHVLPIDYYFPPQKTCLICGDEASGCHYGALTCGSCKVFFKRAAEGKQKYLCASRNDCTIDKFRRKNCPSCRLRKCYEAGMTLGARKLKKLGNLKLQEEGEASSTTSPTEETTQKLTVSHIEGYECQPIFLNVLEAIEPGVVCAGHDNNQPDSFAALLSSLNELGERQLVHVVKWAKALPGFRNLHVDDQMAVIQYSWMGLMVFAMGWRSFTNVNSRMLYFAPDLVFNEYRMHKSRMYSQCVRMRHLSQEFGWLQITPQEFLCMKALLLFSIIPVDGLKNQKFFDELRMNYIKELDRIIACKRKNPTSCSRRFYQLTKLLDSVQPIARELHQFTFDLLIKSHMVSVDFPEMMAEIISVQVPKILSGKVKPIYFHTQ
Target sequence in this assay (P40337 whole entry, looked up): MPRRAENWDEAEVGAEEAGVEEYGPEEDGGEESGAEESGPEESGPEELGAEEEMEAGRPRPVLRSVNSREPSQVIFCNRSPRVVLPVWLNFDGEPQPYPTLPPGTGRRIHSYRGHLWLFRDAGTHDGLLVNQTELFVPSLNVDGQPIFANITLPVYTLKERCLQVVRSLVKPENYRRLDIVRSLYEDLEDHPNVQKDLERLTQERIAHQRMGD

[3] = biological target: T1, von Hippel-Lindau disease tumor suppressor/Androgen receptor; assay: PROTAC activity at AR/VHL in human 22Rv1 cells assessed as induction of androgen receptor degradation at 0.03 to 3 uM measured for 12 hrs by Western blot analysis; type: cell-based; details: dose 0.03-3 µM
Target sequence in this assay (P10275 whole entry, looked up): as the sequence (P10275 whole entry, looked up) above
Target sequence in this assay (P40337 whole entry, looked up): as the sequence (P40337 whole entry, looked up) above

[4] = biological target: T1, von Hippel-Lindau disease tumor suppressor/Androgen receptor; assay: PROTAC activity at AR/VHL in human VCaP cells assessed as induction of androgen receptor degradation at 0.03 to 3 uM measured for 12 hrs by Western blot analysis; type: cell-based; details: dose 0.03-3 µM
Target sequence in this assay (P10275 whole entry, looked up): as the sequence (P10275 whole entry, looked up) above
Target sequence in this assay (P40337 whole entry, looked up): as the sequence (P40337 whole entry, looked up) above

[5] = biological target: T1, von Hippel-Lindau disease tumor suppressor/Androgen receptor; assay: PROTAC activity at AR/VHL in human LNCaP cells assessed as induction of androgen receptor degradation measured for 12 hrs by Western blot analysis; type: cell-based
[6] = biological target: T1, von Hippel-Lindau disease tumor suppressor/Androgen receptor; assay: PROTAC activity at AR/VHL in human 22Rv1 cells assessed as induction of androgen receptor degradation measured for 12 hrs by Western blot analysis; type: cell-based
[7] = biological target: T1, von Hippel-Lindau disease tumor suppressor/Androgen receptor; assay: PROTAC activity at AR/VHL in human VCaP cells assessed as induction of androgen receptor degradation measured for 12 hrs by Western blot analysis; type: cell-based
[8] = biological target: T1, von Hippel-Lindau disease tumor suppressor/Androgen receptor; assay: PROTAC activity at AR/VHL in human MCF7 cells assessed as effect on AR level at 0.03 to 10 uM measured for 12 hrs by Western blot analysis; type: cell-based; details: dose 0.03-10 µM
Target sequence in this assay (P10275 whole entry, looked up): as the sequence (P10275 whole entry, looked up) above
Target sequence in this assay (P40337 whole entry, looked up): as the sequence (P40337 whole entry, looked up) above

[9] = biological target: T1, von Hippel-Lindau disease tumor suppressor/Androgen receptor; assay: PROTAC activity at AR/VHL in human MDA-MB-231 cells assessed as effect on AR level at 0.03 to 10 uM measured for 12 hrs by Western blot analysis; type: cell-based; details: dose 0.03-10 µM
Target sequence in this assay (P10275 whole entry, looked up): as the sequence (P10275 whole entry, looked up) above
Target sequence in this assay (P40337 whole entry, looked up): as the sequence (P40337 whole entry, looked up) above

[10] = biological target: T1, von Hippel-Lindau disease tumor suppressor/Androgen receptor; assay: PROTAC activity at AR/VHL in human HEK293T cells assessed as effect on AR level at 0.03 to 10 uM measured for 12 hrs by Western blot analysis; type: cell-based; details: dose 0.03-10 µM
Target sequence in this assay (P10275 whole entry, looked up): as the sequence (P10275 whole entry, looked up) above
Target sequence in this assay (P40337 whole entry, looked up): as the sequence (P40337 whole entry, looked up) above

[11] = biological target: T1, von Hippel-Lindau disease tumor suppressor/Androgen receptor; assay: PROTAC activity at AR/VHL in human MCF7 cells assessed as effect on AR level measured for 12 hrs by Western blot analysis; type: cell-based
Target sequence in this assay (P10275 whole entry): as the sequence (P10275 whole entry, looked up) above
Target sequence in this assay (P40337 whole entry): as the sequence (P40337 whole entry, looked up) above

[12] = biological target: T1, von Hippel-Lindau disease tumor suppressor/Androgen receptor; assay: PROTAC activity at AR/VHL in human MDA-MB-231 cells assessed as effect on AR level measured for 12 hrs by Western blot analysis; type: cell-based
Target sequence in this assay (P10275 whole entry): as the sequence (P10275 whole entry, looked up) above
Target sequence in this assay (P40337 whole entry): as the sequence (P40337 whole entry, looked up) above

[13] = biological target: T1, von Hippel-Lindau disease tumor suppressor/Androgen receptor; assay: PROTAC activity at AR/VHL in human HEK293T cells assessed as effect on AR level measured for 12 hrs by Western blot analysis; type: cell-based
Target sequence in this assay (P10275 whole entry): as the sequence (P10275 whole entry, looked up) above
Target sequence in this assay (P40337 whole entry): as the sequence (P40337 whole entry, looked up) above

LNCaP [14] = assay: Downregulation of PSA expression in human LNCaP cells measured up to 5 uM incubated for 12 hrs by RT-qPCR analysis; type: functional, cell-based
LNCaP [15] = assay: Downregulation of FKB51 expression in human LNCaP cells measured up to 5 uM incubated for 12 hrs by RT-qPCR analysis; type: functional, cell-based
LNCaP [16] = assay: Downregulation of TMPRSS2 expression in human LNCaP cells measured up to 5 uM incubated for 12 hrs by RT-qPCR analysis; type: functional, cell-based
[17] = biological target: T1, von Hippel-Lindau disease tumor suppressor/Androgen receptor; assay: PROTAC activity at AR/VHL in human 22Rv1 cells assessed as induction of androgen receptor degradation at 1 uM measured for 6 hrs in presence of VH032 by Western blot analysis; type: cell-based
[18] = biological target: T1, von Hippel-Lindau disease tumor suppressor/Androgen receptor; assay: PROTAC activity at AR/VHL in human LNCaP cells assessed as induction of androgen receptor degradation at 1 uM measured for 6 hrs in presence of VH032 by Western blot analysis; type: cell-based
[19] = biological target: T1, von Hippel-Lindau disease tumor suppressor/Androgen receptor; assay: PROTAC activity at AR/VHL in human 22Rv1 cells assessed as induction of androgen receptor degradation at 1 uM measured for 6 hrs in presence of MG132 by Western blot analysis; type: cell-based
[20] = biological target: T1, von Hippel-Lindau disease tumor suppressor/Androgen receptor; assay: PROTAC activity at AR/VHL in human LNCaP cells assessed as induction of androgen receptor degradation at 1 uM measured for 6 hrs in presence of MG132 by Western blot analysis; type: cell-based
[21] = biological target: T1, von Hippel-Lindau disease tumor suppressor/Androgen receptor; assay: PROTAC activity at AR/VHL in human 22Rv1 cells assessed as induction of androgen receptor degradation at 1 uM measured for 6 hrs in presence of MLN4924 by Western blot analysis; type: cell-based
[22] = biological target: T1, von Hippel-Lindau disease tumor suppressor/Androgen receptor; assay: PROTAC activity at AR/VHL in human LNCaP cells assessed as induction of androgen receptor degradation at 1 uM measured for 6 hrs in presence of MLN4924 by Western blot analysis; type: cell-based
[23] = biological target: T1, von Hippel-Lindau disease tumor suppressor/Androgen receptor; assay: PROTAC activity at AR/VHL in human 22Rv1 cells assessed as induction of androgen receptor degradation at 1 uM measured for 6 hrs in presence of PSMA ligand by Western blot analysis; type: cell-based
[24] = biological target: T1, von Hippel-Lindau disease tumor suppressor/Androgen receptor; assay: PROTAC activity at AR/VHL in human LNCaP cells assessed as induction of androgen receptor degradation at 1 uM measured for 6 hrs in presence of PSMA ligand by Western blot analysis; type: cell-based
[25] = biological target: T1, von Hippel-Lindau disease tumor suppressor/Androgen receptor; assay: PROTAC activity at AR/VHL in PSMA knockdown human LNCaP cells assessed as induction of androgen receptor degradation at 1 uM measured for 24 hrs by Western blot analysis; type: cell-based
[26] = Drug accumulation in male BALB/c mouse tumor implanted with human 22Rv1 cells at 0.3 mmol/L, iv measured at 1 to 24 hrs by LC-MS/MS analysis; type: ADME, organism-based, Neoplasm, CWR22R; details: in vivo, time 1-24 hrs
[27] = biological target: T1, von Hippel-Lindau disease tumor suppressor/Androgen receptor; assay: In vivo PROTAC activity at AR/VHL in BALB/c mouse xenografted with human LNCaP cells assessed as reduction in AR level in tumor at 1 mmol/L, iv measured for 3 days by Western blot analysis; type: functional, organism-based; details: time 3.0 day

remaining at 24 h [1]: > 90%
Activity [2]: Active
Activity [3]: Active
Activity [4]: Active
DC50 [5]: 0.0444 µM
Activity ([5]; dose 0.03-10 µM): Dose-dependent-effect
DC50 [6]: 0.0502 µM
Activity ([6]; dose 0.03-10 µM): Dose-dependent-effect
DC50 [7]: 0.0219 µM
Activity ([7]; dose 0.03-10 µM): Dose-dependent-effect
Activity [8]: Active
Activity [9]: Active
Activity [10]: Active
DC50 [11]: > 5 µM
DC50 [12]: > 5 µM
DC50 [13]: > 5 µM
Activity [17]: Active
Activity [18]: Active
Activity [19]: Active
Activity [20]: Active
Activity [21]: Active
Activity [22]: Active
Activity [23]: Active
Activity [24]: Active
Activity [25]: Active
Drug uptake [26]: Active
Activity [27]: Active
Compound: Cc1ncsc1-c1ccc(CNC(=O)[C@@H]2C[C@@H](OC(=O)CCOCCOCCOCCC(=O)NCCCC[C@H](NC(=O)N[C@@H](CCC(=O)O)C(=O)O)C(=O)O)CN2C(=O)[C@@H](NC(=O)CCCCCCCCCNC(=O)c2ccc(C(=O)N[C@H]3C(C)(C)[C@H](Oc4ccc(C#N)c(Cl)c4)C3(C)C)cc2)C(C)(C)C)cc1
Activity (LNCaP [14]): Active
Activity (LNCaP [15]): Active
Activity (LNCaP [16]): Active
